According to paper PMC4872216, “Novel small molecule 11β-HSD1 inhibitor from the endophytic fungus Penicillium commune” (Scientific Reports, 2016):
“Also recorded” adds a separate entry of the source.

What was measured:
[1] = target: T1, recombinant human 11β-HSD1 (Homo sapiens, UniProt P28845); assay: 11β-HSD1 enzyme inhibition assay (cortisone to cortisol, HPLC-MS/MS); type: biochemical; settings: cortisone 50 μM, NADPH 1 mM, 37 °C, 30 min, read-out: IC50 (inhibitory activities against 11β-HSD1)
T1 construct: The gene encoding 11β-HSD1 (Genebank: NC_018912.2) was cloned into the pET-28a vector (Novagen); hexa-histidine (C, cleaved yes); made in house; host or cells: E. coli BL21(DE3)
T1 sequence (P28845 whole entry): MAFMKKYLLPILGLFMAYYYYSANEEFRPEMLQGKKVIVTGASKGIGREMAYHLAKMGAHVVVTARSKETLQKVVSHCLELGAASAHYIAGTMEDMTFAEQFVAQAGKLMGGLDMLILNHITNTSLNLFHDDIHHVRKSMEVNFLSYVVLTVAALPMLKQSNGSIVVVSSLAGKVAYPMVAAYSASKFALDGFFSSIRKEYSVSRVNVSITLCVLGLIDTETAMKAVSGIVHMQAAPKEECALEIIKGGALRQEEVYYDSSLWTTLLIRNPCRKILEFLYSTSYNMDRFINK
Protocol: To explore the 11β-HSD1 inhibitory activities of compounds 1–8 in vitro, recombinant human 11β-HSD1 protein was incubated with various concentrations of compounds and the enzymatic activity (cortisone to cortisol) was tested using HPLC-MS/MS (Fig. 3).
(§1) The gene encoding 11β-HSD1 (Genebank: NC_018912.2) was cloned into the pET-28a vector (Novagen). After the recombinant plasmids were verified by sequencing, the plasmid was transformed into E. coli BL21(DE3) (Invitrogen) which were grown in LB medium at 37 °C to an OD600 (0.8–1.0) and induced by 0.4 mM isopropyl -D-thiogalactopyranoside (IPTG) at 20 °C for 16 hours. Bacterial cells were lysed by ultrasonification on ice in a buffer containing 20 mM Tris, pH 8.5, 200 mM NaCl, 5 mM mercaptoethanol, 0.1% TritonX-100, and 5% glycerol. Soluble C-terminally hexa-histidine tagged 11β-HSD1 was bound to Ni-agarose affinity resin (Qiagen), washed with a buffer containing 20 mM Tris, pH 8.5, 200 mM NaCl, and 10 mM imidazole, and eluted with a buffer containing 20 mM Tris, pH 8.8, 250 mM NaCl, and 150 mM imidazole. Thrombin (Roche) was added at one unit per 4 mg protein to the elute, which was then dialyzed against 20 mM Tris pH 8.5 and 100 mM NaCl at room temperature for overnight digestion. After thrombin digestion to remove the hexahistidine tag, contaminant proteins were removed by loading the elute onto a second cobalt affinity column equilibrated in the dialyzing buffer and collecting the flow-through. The protein was further purified with anion exchange chromatography, using a linear gradient of 10 mM to 1 M NaCl concentration and size exclusion chromatography at 20 mM Tris pH 8.5 and 200 mM NaCl[22][23].
The inhibitory effects of 1–8 on 11β-HSD1 were measured using recombinant human 11β-HSD1 protein through HPLC-MS/MS method. Briefly, 2.5 μL recombinant 11β-HSD1 protein (0.512 mg protein/ml) was added to 100 μL buffer (100 mM KCl, 20 mM NaCl, 20 mM Hepes, pH 7.5) containing NADPH (1 mM) and cortisone (50 μM) with or without various concentrations of compounds. The reactants were incubated at 37 °C for 30 min. After extraction with dichloromethane, evaporation and resolvation with 200 μL methanol, cortisone and cortisol were measured by HPLC-MS/MS and multi-reactions monitoring (MRM) technology. Detection was performed using a Shimadzu LC-20AD HPLC system equipped with an SHIMADZU VP-ODS 150 L × 4.6 mm column connected to a API 4000 LC/MS/MS system. Samples were analyzed after injection and equilibrated with 45% solution A (0.1% formic acid in water) and 55% solution B (Methanol) under isocratic elution with the flow rate of 0.8 mL/min. The HPLC eluent were tested by HPLC-MS/MS using collision energy 33 eV (cortisol) and 30 eV […] in positive ion mode. Analyst quantitation optimization wizard was used to optimize the collision energies and other electric lens settings for MRM detections. The inhibition rates were calculated using the concentration ratios of cortisone and cortisol in tubes with or without various compounds.

[2] = target: T1, recombinant human 11β-HSD1; assay: Binding affinity assay using microscale thermophoresis (MST); settings: labelled 11β-HSD1 50 nM, 22 °C, means ± SD for three experiments; for Kd: read-out: Kd (dissociation constant with 11β-HSD1)
Text: Measuring the thermophoretic behaviour of a protein in the presence of differing ligand concentrations by MST allows quantitative analysis of molecular interactions in solution. The MST technique has previously been used to investigate protein-protein, small organic molecule-protein and antibody-protein interactions.
as §1
The ability of the purified 11β-HSD1 to bind with potential ligands was analyzed using MST. The protein was labeled with the Monolith NT™ Protein Labeling Kit RED (Cat#L001) according to the supplied labeling protocol. Labelled 11β-HSD1 was kept constant at 50 nM, while all samples tested were diluted in a 20 mM HEPES (pH 7.5) and 0.05 (v/v)% Tween-20. Compounds were diluted in 12 dilution steps covering the range of appropriate concentrations. After 10 min incubation at room temperature, samples were loaded into Monolith^TM standard-treated capillaries and the thermophoresis was measured at 22 °C after 30 min incubation on a Monolith NT.115 instrument (NanoTemper Technologies, München, Germany). Laser power was set to 40% using 30 seconds on-time and the LED power was set to 100%. The dissociation constrant Kd values were fitted by using the NTAnalysis software (NanoTemper Technologies, München, Germany).

3T3-L1 preadipocytes = assay: Lipid accumulation in differentiation-induced 3T3-L1 preadipocytes (Oil Red O staining); type: cell-based; settings: 3T3-L1 preadipocytes induced to differentiate, 50 μM compound, 6 days
Protocol: It was reported that 11β-HSD1 is highly expressed in normal liver[18] and stimulates pre-adipocyte differentiation. As a result, many 11β-HSD1 inhibitors were investigated to prevent adipogenesis. To further examine the 11β-HSD1 inhibitory effects of compound 3, we examined the anti-adipogenic effect of compound 3 during the differentiation of 3T3-L1 cells.
(§2) 3T3-L1 preadipocytes were purchased from Shanghai Institute of Cell Biology, Chinese Academy of Sciences. Both of them were cultured in DMEM medium (Gibco, USA) containing 10% FBS, penicillin (100 U/mL), streptomycin […] in 5% CO2 at 37 °C. 3T3-L1 preadipocytes were induced to differentiate as previously described. In short, differentiation was induced by adding 0.5 mmol/L 3-isobutyl-1-methyxanthine (Sigma), 10 μg/mL insulin (Sigma), and […] dexamethasone (Sigma) to the medium. After 48 h incubation (d2), the medium was replaced with DMEM containing 10 μg/mL insulin and 50 μM compound 3. On d4, the medium was replaced with DMEM containing compound 3, and then changed back to the same medium every on d6.
Preadipocytes 3T3-L1 were induced to differentiate with or without compounds 3 for 6 days, and then washed twice with PBS, fixed in 3.7% formaldehyde for 1 h and stained with Oil Red O for another 1 h at room temperature. Cells were then washed several times with PBS, and photographed by a light microscope (Olympus, Japan).

[3] = system: 11β-HSD1 expression in 3T3-L1 cells; assay: 11β-HSD1 expression in 3T3-L1 cells (western blot); type: cell-based; settings: differentiation-induced 3T3-L1 preadipocytes, β-Actin loading control
Protocol: Figure 5 Effects of compound 3 on lipid accumulation and 11β-HSD1 expression in 3T3-L1 cells. Preadipocytes were induced to differentiate in the presence or absence of compound 3, which was then stained with Oil Red O and photographed (40×). 11β-HSD1 expressions were determined by western blot. β-Actin was used as a loading control.
as §2
Cells were treated and then lysed in a radio immune-precipitation assay buffer. Protein concentrations were determined using a BCA protein assay kit (Byontime, Beijing, China) and equalized before loading. […]

Row | IC50 [1] [µM] | Kd [2] [µM] | SMILES | Kd (dissociation constant with 11β-HSD1) [2] | lipid droplet accumulation (3T3-L1 preadipocytes) | 11β-HSD1 expression [3]
1 | 45.5 ± 7.82 | 421 ± 12.1 | CN1C(=O)c2ccccc2NC(=O)C12OC2c1cccc(O)c1 (single isomer, unassigned; (+)) [Compound 5, (+)-cyclopenol] |  |  | 
2 | > 200 |  | CC(=O)c1cc(C)c2c(c1O)C[C@H](C)[C@@]1(C[C@@H](O)C[C@@H](C)O1)O2 [Compound 1, Penicophenone A] | either no binding or no statistically significant binding was detected; also recorded: n.b.b |  | 
3 | > 200 |  | CN1C(=O)c2ccccc2NC(=O)/C1=C/c1ccccc1 [Compound 4, 3-benzylidene-3,4-dihydro-4-methyl-lH-l,4-benzodiazepine-2,5-dione] | either no binding or no statistically significant binding was detected and n.b. |  | 
4 | > 200 |  | CC(=O)c1cc(C)c(O)c(C[C@]23Cc4c(O)c(C(C)=O)cc(C)c4O[C@@]2(O)[C@@H](C)OC3=O)c1O [Compound 8, penilactones A] | either no binding or no statistically significant binding was detected and n.b. |  | 

The remaining lines, values behind:

Row | SMILES | IC50 [1] [µM] | Kd [2] [µM] | Kd (dissociation constant with 11β-HSD1) [2] | lipid droplet accumulation (3T3-L1 preadipocytes) | 11β-HSD1 expression [3]
5 | COc1cc(Cc2c(O)c(C)cc(C(C)=O)c2O)c(OC)cc1O [Compound 2, Penicophenone B] | > 200 |  | either no binding or no statistically significant binding was detected and n.b. |  | 
6 | CN1C(=O)c2ccccc2NC(=O)[C@@H](Cc2ccccc2)N(C)C(=O)c2ccccc2NC(=O)[C@H]1Cc1ccccc1 [Compound 3, Penicopeptide A] | 9.07 ± 0.61 | 82.1 ± 5.01 |  | decreased the lipid droplet accumulation | inhibition of 11β-HSD1 expression
7 | CN1C(=O)c2ccccc2NC(=O)C12OC2c1ccccc1 (centres unmarked) [Compound 6, cyclopenin] |  | 513 ± 10.6 |  |  | 
8 | CC(C)=CCC[C@]1(C)[C@@H](O)CC[C@@]2(C)[C@H]1CC[C@H]1Cc3c([nH]c4ccccc34)[C@@]12C [Compound 7, emindole SB] | > 200 |  | either no binding or no statistically significant binding was detected and n.b. |  | 
